Experimental findings from article PMC5382891 (Scientific Reports, 2017) are described below.

Read-outs that look alike come from different tables or passages of the source. Ends that are not written are not given here.

The target of test [1] is T1, human recombinant NOP receptor (Homo sapiens, UniProt P41146).
T1 construct: expressed in transfected cells
As to the kind of experiment: cell-based. It counts as cell-based.

A further test concerns mouse vas deferens. Briefly: electrically stimulated mouse vas deferens bioassay. To be noted: Table 2; for mVD Emax ± SEM: percent of the control twitch, mean ± SEM of at least 4 separate experiments, footnote a: concentration response curve incomplete due to low potency. As to the method:
The experiments were performed on the mouse vas deferens (mVD). The tissues were taken from male CD-1 mice 16–18 g (Harlan, Ud, Italy). Mice were housed in 425 × 266 × 155 mm cages (Techniplast, Mi, Italy), 8 per cage, all under standard conditions (22 °C, 55% humidity, 12 h light/dark cycle, light on at 7:00 h), with food for mice (4RF, Mucedola, Mi, Italy) and water ad libitum. A mouse red house (Tecniplast, Va, Italy) and nesting materials were present in each cage for mice. The day of the experiment the animals were sacrificed with CO2 overdose. The experimental protocol was approved by the Ethical Committee for the Use of Laboratory Animals of the University of Ferrara and by the Italian Ministry of Health (authorization number 9927, 19/04/2013). The animals were treated in accordance with the European Communities Council directives (2010/63/EU) and national regulations (D.L. 26/2014). Bioassay experiments were performed as previously described. The tissues were suspended in 5 ml organ bath containing Krebs solution (composition in mM: NaCl 118.5, KCl 4.7, KH2PO4 1.2, NaHCO3 25, CaCl2 2.5, glucose 10). The Krebs solution was oxygenated with 95% O2 and 5% CO2. The temperature was set at 33 °C. At resting tension 0.3 g was applied to the mVD. […] The electrically evoked contractions were measured isotonically by means of Basile strain gauge transducers (Basile 7006; srl Ugo Basile, Varese, Italy) and recorder with a computer – based acquisition system (Power Lab 8, ADInstruments, Colorado Springs, USA). […]
The pharmacological terminology adopted in this paper is consistent with IUPHAR recommendations. All data are expressed as the mean ± standard error of the mean (SEM) of n experiments. […] In calcium mobilization experiments, maximum change in fluorescence, expressed as percent over the baseline fluorescence, was used to determine agonist response. Electrically stimulated tissues data are expressed as % of the control twitch induced by electrical field stimulation. […]

T1 sequence (P41146 whole entry): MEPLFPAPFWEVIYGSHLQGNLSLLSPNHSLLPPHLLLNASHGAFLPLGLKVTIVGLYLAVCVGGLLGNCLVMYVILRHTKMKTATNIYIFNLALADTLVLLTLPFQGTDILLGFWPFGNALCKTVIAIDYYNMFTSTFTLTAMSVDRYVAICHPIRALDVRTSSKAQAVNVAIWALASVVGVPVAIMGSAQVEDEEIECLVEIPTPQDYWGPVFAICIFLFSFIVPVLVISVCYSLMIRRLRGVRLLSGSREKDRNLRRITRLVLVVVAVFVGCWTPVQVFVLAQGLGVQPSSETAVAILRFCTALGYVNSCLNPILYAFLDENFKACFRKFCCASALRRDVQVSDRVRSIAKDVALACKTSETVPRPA

As usually defined, the EC50 is the concentration needed to bring the measured effect to its halfway point. For “FGGFTGARKSAR-NH2 [compound 10, N/OFQ(1-12)-NH2] [listing 1 of 2 here]”, the EC50 in test [1] (Ca2+ mobilization pEC50 (CL95%)) was 0.2 nM.
As usually defined, the Emax is the size of the effect at its maximum, as opposed to the concentration needed. Consider “FGGFTGARKSAR-NH2 [compound 10, N/OFQ(1-12)-NH2] [listing 2 of 2 here]”, for which the Emax in test [1] (CHO, read-out: Ca2+ mobilization Emax ± SEM, SEM) was 204 ± 16%.
Turning to “N/OFQ(1-11)-NH2 (FGGFTGARKSA-NH2; UniProt Q13519 130-140, looked up, fragment) [compound 12]”, the “mVD Emax ± SEM” value in the test on mouse vas deferens (SEM) is recorded as 65 ± 5%^a. In addition, the “Ca2+ mobilization Emax ± SEM” value in test [1] (SEM) came out at 182 ± 34%.
For the substance N/OFQ(2-12)-NH2 [compound 14], the “mVD pEC50 (CL95%)” value in the test on mouse vas deferens (electrically stimulated mouse vas deferens, Krebs solution, 33 °C, cumulative concentration response curves, mean of at least 4 separate experiments, CL95% in brackets, * P < 0.05 versus N/OFQ(1-13)-NH2) is “inactive”. Also, in the test on mouse vas deferens, the “mVD Emax ± SEM” value is “inactive”. For the same substance, in test [1], the “Ca2+ mobilization Emax ± SEM” value is recorded as “Inactive” and the “Ca2+ mobilization pEC50 (CL95%)” value was “Inactive”.
On to “compound 15: heterodimeric derivative N/OFQ(1-12)-N/OFQ(2-12), 2,2′-disulfanediyldiethanamine spacer (chain 1 FGGFTGARKSAR; chain 2 GGFTGARKSAR)”, for which, in test [1], the “Ca2+ mobilization pEC50 (CL95%)” value is listed as 9.49 (9.07–9.91).
